Test results: paper PMC8453481, “OFF-State-Specific Inhibition of the Proprotein Convertase Furin” (ACS Chemical Biology, 2021)
Read-outs that look alike come from different tables or passages of the source. One block for each compound: values may come before it.

Columns and labels:
[1] = ref 29; cited from earlier work
human furin [2] = molecular target: T1, human furin (Homo sapiens, UniProt P09958); test: Enzyme kinetics with fluorogenic substrate pyr-ERTKR-AMC, furin; assay type: biochemical; settings: pH 7.0, 37 °C; for Ki: competitive inhibition model, constant inhibitor concentration, substrate dilution series, triplicate
T1 construct: made in house; host or cells: HEK293S cells, stably transfected (pCDNA3.1(+)), purified from conditioned medium
T1 sequence (P09958 108-574 limits assumed): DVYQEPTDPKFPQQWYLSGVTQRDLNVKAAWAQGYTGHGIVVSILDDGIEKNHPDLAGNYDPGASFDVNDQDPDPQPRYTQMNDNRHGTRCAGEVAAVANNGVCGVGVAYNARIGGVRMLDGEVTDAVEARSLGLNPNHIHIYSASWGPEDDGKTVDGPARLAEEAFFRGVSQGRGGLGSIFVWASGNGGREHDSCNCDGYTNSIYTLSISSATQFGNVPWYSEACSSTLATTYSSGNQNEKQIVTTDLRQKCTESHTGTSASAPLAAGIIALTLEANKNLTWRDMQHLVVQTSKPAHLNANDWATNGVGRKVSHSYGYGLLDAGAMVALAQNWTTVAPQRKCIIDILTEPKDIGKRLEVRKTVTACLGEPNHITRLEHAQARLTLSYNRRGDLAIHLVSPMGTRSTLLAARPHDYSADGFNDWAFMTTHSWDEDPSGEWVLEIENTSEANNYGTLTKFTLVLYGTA
Procedure: (§1) HEK293S cells were stably transfected with the coding sequences of human furin,[20] PC5/6 (Arg33-Gly634, UNP[41] Q92824) and PC7 (Pro44-Thr667, UNP[41] Q16549) cloned into the pCDNA3.1(+) vector (ThermoFisher). Cells were grown in DMEM (4.5 g L^–1 glucose, 2 mM L-glutamine, 110 mg l^–1 sodium pyruvate, 3.7 g L^–1 NaHCO3, nonessential amino acids) supplemented with 10% (v/v) FBS. Polyclonal selection of stable cell lines was conducted in the presence of 500 μg mL^–1 G418 (Geneticin). The cells were grown in multilayer flasks (HyperFlask M, Corning) without G418 for large-scale protein expression. The medium of confluent expression cultures was exchanged with DMEM supplemented with 2 mM sodium butyrate as well as with FBS (2% (v/v), furin) or without FBS (PC5/6 and PC7). The medium exchange was repeated five (furin) or two (PC5/6 and PC7) times, and the centrifuged medium (20 min, 5500 g, 4 °C) was stored at −80 °C until further use.
(§2) The purification of human furin from a conditioned medium has been shown previously.[20] […]
(§3) Enzyme kinetic measurements were performed in 100 mM HEPES/NaOH, at pH 7.0, 2 mM CaCl2, and 0.2% (v/v) Triton X 100 with the fluorogenic substrate pyr-ERTKR-7-amino-4-methylcoumarin (Bachem) at 37 °C. The 100 μL reactions were prepared in 96-well black half-area plates (Corning), preincubated for 15 min at 37 °C and measured in a 96-well plate reader (Tecan infinite 200) at excitation and emission wavelengths of 380 and 460 nm. […] The KM values were determined with 1:2 dilution series of the substrate in the absence of an inhibitor (4.7 ± 0.4 μM for furin, 2.5 ± 0.2 μM for PC5/6, and 19.3 ± 0.8 μM for PC7; Figure S7). Enzyme kinetic data were evaluated with GRAPHPAD PRISM (GraphPad Software) using the prebuild “Michaelis–Menten” model to calculate KM and a competitive inhibition model (v = Vmax × S/[S + KM(1 + I/Ki)]; v = reaction velocity, Vmax = maximum velocity, S = substrate concentration, KM = Michaelis–Menten constant, Ki = inhibition constant) for Ki determination. […]

PC5/6 = molecular target: T2, PC5/6 (Homo sapiens, UniProt Q92824); test: Enzyme kinetics with fluorogenic substrate pyr-ERTKR-AMC, PC5/6; assay type: biochemical; settings: pH 7.0, 37 °C; for Ki: competitive inhibition model, constant inhibitor concentration, substrate dilution series, triplicate
T2 construct: PC5/6 (Arg33-Gly634, UNP[41] Q92824); made in house; host or cells: HEK293S cells, stably transfected (pCDNA3.1(+)), purified from conditioned medium
T2 sequence (Q92824 33-634): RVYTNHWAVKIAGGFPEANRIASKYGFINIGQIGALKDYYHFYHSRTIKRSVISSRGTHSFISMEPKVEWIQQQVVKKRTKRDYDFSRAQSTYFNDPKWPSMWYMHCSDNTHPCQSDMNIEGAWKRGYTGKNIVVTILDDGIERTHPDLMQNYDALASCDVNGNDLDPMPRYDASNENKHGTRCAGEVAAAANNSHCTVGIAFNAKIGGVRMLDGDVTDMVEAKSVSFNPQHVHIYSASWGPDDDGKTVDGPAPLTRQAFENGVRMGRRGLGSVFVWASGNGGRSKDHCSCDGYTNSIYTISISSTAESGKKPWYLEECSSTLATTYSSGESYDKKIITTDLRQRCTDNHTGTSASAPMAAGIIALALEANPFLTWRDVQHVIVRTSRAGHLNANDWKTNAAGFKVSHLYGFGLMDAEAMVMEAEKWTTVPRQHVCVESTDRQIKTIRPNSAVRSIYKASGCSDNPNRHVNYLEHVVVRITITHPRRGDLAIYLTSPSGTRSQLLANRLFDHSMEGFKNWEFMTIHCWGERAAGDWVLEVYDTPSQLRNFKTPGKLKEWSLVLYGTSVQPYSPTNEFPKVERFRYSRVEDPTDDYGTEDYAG
Procedure: as §1, §2, §3

PC7 = molecular target: T3, PC7 (Homo sapiens, UniProt Q16549); test: Enzyme kinetics with fluorogenic substrate pyr-ERTKR-AMC, PC7; assay type: biochemical; settings: for potency loss / increase of the Ki for PC7 compared with furin: Ki PC7 versus Ki furin; for Ki: competitive inhibition model, constant inhibitor concentration, substrate dilution series, triplicate
T3 construct: PC7 (Pro44-Thr667, UNP[41] Q16549); made in house
T3 sequence (Q16549 142-667 limits assumed): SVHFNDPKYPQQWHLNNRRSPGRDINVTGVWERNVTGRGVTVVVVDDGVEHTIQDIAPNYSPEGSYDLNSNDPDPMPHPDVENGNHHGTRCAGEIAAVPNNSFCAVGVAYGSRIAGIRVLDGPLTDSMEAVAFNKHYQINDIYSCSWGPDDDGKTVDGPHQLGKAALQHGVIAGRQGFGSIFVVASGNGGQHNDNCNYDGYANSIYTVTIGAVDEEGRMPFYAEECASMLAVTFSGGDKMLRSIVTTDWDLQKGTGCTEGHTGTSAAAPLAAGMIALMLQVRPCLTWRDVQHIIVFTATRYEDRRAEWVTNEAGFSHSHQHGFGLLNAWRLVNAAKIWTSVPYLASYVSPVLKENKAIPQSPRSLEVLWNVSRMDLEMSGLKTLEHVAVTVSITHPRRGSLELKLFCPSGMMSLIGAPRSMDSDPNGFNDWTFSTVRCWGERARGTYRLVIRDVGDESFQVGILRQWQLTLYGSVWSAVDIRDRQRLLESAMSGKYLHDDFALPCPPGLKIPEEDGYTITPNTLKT
Procedure: as §1
The purification of human furin from a conditioned medium has been shown previously.[20] PC5/6 and PC7 were purified by immobilized metal affinity chromatography and gel permeation chromatography (GPC), as shown for furin but excluding the inhibitor affinity purification step.[20] PC7 (50 μg mL^–1) was fully activated in 50 mM Tris/HCl, at pH 7.5, 10 mM CaCl2, and 0.15 M NaCl, at pH 7.5, in the presence of 2.0 μg mL^–1 thermolysin for 16 h at 37 °C. To remove thermolysin, the reaction mixture was concentrated in an ultrafiltration device (30 kDa cutoff, amicon, Millipore) and subjected to GPC (both steps at 4 °C). Purified PC5/6 and PC7 were stored at −20 °C.
Enzyme kinetic measurements were performed in 100 mM HEPES/NaOH, at pH 7.0, 2 mM CaCl2, and 0.2% (v/v) Triton X 100 with the fluorogenic substrate pyr-ERTKR-7-amino-4-methylcoumarin (Bachem) at 37 °C. The 100 μL reactions were prepared in 96-well black half-area plates (Corning), preincubated for 15 min at 37 °C and measured in a 96-well plate reader (Tecan infinite 200) at excitation and emission wavelengths of 380 and 460 nm. Because of the autofluorescence of inhibitor 1, the Ki values were determined at constant inhibitor concentrations (1: 20 μM for furin, 15 μM for PC5/6 and 50 μM for PC7; 2: 10 μM for furin, 5 μM for PC5/6 and 15 μM for PC7) and 1:2 dilution series of the substrate (Figure S7). The KM values were determined with 1:2 dilution series of the substrate in the absence of an inhibitor (4.7 ± 0.4 μM for furin, 2.5 ± 0.2 μM for PC5/6, and 19.3 ± 0.8 μM for PC7; Figure S7). Enzyme kinetic data were evaluated with GRAPHPAD PRISM (GraphPad Software) using the prebuild “Michaelis–Menten” model to calculate KM and a competitive inhibition model (v = Vmax × S/[S + KM(1 + I/Ki)]; v = reaction velocity, Vmax = maximum velocity, S = substrate concentration, KM = Michaelis–Menten constant, Ki = inhibition constant) for Ki determination. All measurements were performed in triplicate.

human furin [3] = molecular target: T1, human furin; test: Crystallography-based inhibitor titration of furin crystals (occupancy refinement); assay type: binding
Procedure: Because of the lower number of specific interactions, we assumed that the binding affinity of 2 for the S4 pocket is lower as compared to the S1 pocket. […] The strength of the electron density directly correlates to the occupation of the binding sites with the inhibitor. Indeed, we found the S1 pocket already occupied by 2 at 0.4 mM as indicated by the occupancy of 75% from crystallographic refinement (Table S2). […] The refined occupancy of inhibitor 2 at the S1 pocket at 40 mM concentration was 0.94. It should be noted that water molecules occupy the substrate binding pockets in absence of any ligand.[22] The binding sites of these water molecules overlap with the binding sites of the inhibitors and affect crystallographic occupancy refinement. Thus, the refined occupation should always be considered in context with the electron density (Figure 6C–E). […] We also observed a third binding site of 2 and 3 outside of the substrate binding cleft. Here, two inhibitor molecules are stacked between two arginine residues of a crystal contact. This binding mode is specific for the crystal lattice and thus is not expected to occur in solution (Figure S5B, D).
The optimized soaking solutions contained either 1.0 M NaCl, 200 mM Mes/NaOH, at pH 5.5, 10% (w/v) PEG8000, and 20% (v/v) DMSO or 0.25 M NaCl, 200 mM Mes/NaOH, at pH 5.5, 20% (w/v) PEG8000, and 20% (v/v) DMSO and were supplemented with the specific inhibitors. Inhibitors 1 and 2 were soaked at 20 mM concentration in 1 M NaCl containing soaking solution for 0.5 h. Inhibitor 3 and 4 were soaked in 0.25 M NaCl containing soaking solution for 0.5 h at an inhibitor concentration of 100 mM and 20 mM, respectively. For the inhibitor titration experiments with 2, 40 mM, 4 mM, or 0.4 mM of the inhibitor was soaked for 0.5 h in 0.25 M NaCl-containing soaking solution. Soaked crystals were flash cooled in liquid N2. Diffraction data collection was performed at the synchrotron beamline BL14.2[33] (BESSY-II) of Helmholtz-Zentrum Berlin (HZB). The data were processed using XDS[34] with XDS-APP[35] (v2.0) and the CCP4 program suite[36] (v.7.1.001). COOT[37] (v.0.8.9.2) was used for model building. Refinement was performed in PHENIX[38] (v1.18.2) using the PDB ID 5JXG([22]) as an initial model. One specific Rfree-set (initially generated up to 1.0 Å, ref ([22])) was transferred to the data sets prior refinement start. Geometry restraints of the inhibitors were obtained from the PRODRG server[39] and from the GRADE Web server (http://grade.globalphasing.org). All guanylhydrazones were modeled in the E configuration, which is in agreement with previous studies with model compounds.[40] Electron density omit maps were calculated in PHENIX[38] (v1.18.2). PYMOL was used for molecular graphics (http://www.pymol.org) and structural alignments. In the case of inhibitor titration experiments with 2, the structure was first built and refined for a crystal soaked at 40 mM. This structure was used to calculate refinements with (for occupancy calculation) and without (for omit map calculation) an inhibitor in the model for three additional crystals independently soaked at 40 mM, 4 mM, and 0.4 mM (Table S2) obtaining R/Rfree-values of 17.3/19.0, 17.5/19.1, and 17.7/19.3, respectively. The occupancy refinement yielded consistent B-factors between the three differently soaked structures (Table S2). Structure factors and coordinates of the complexes of furin with inhibitors 1, 2, at 1 M NaCl; 2 at 0.25 M NaCl; and 3 and 4 have been deposited as PDB entries 7O1U, 7O1W, 7O1Y, 7O20, and 7O22, respectively.

furin = settings: read-out: Ki furin (reported), cited from earlier work
[4] = 0.4 mM inhibitor, 0.25 M NaCl soak
[5] = 0.4 mM inhibitor, 0.25 M NaCl soak, * very weak electron density
[6] = 4 mM inhibitor, 0.25 M NaCl soak
[7] = 40 mM inhibitor, 0.25 M NaCl soak
[8] = absence of inhibitor, 1:2 dilution series of the substrate

Compound: N=C(N)N/N=C/c1c(Cl)cccc1Cl [guanabenz]
pKa [1]: 8.1

Compound: C/C(=N\NC(=N)N)c1cc(N)cc(/C(C)=N/NC(=N)N)c1 [inhibitor 1]
Ki (human furin [2]): 3.3 ± 0.1 µM
Ki (PC5/6): 3.6 ± 0.2 µM
potency loss / increase of the Ki for PC7 compared with furin (PC7): ~7 fold
Ki (PC7; pH 7.0, 37 °C): 22.4 ± 1.9 µM

Compound: N=C(N)N/N=C/c1ccc(/C=N/NC(=N)N)cc1 [inhibitor 2]
Ki (human furin [2]): 3.1 ± 0.2 µM
Ki (PC5/6): 1.7 ± 0.2 µM
occupancy at S1 pocket (human furin [3]; [4]): 75%
refined occupancy, molecule 1, S1 pocket (human furin [3]; [4]): 0.75
refined occupancy, molecule 2, S4 pocket (human furin [3]; [5]): 0.39
refined occupancy, molecule 3, crystal contact site (human furin [3]; [5]): 0.35
occupancy at S4 pocket (human furin [3]; [6]): 63%
refined occupancy, molecule 1, S1 pocket (human furin [3]; [6]): 0.87
refined occupancy, molecule 2, S4 pocket (human furin [3]; [6]): 0.63
refined occupancy, molecule 3, crystal contact site (human furin [3]; 4 mM inhibitor, 0.25 M NaCl soak, * very weak electron density): 0.38
occupancy at S4 pocket (human furin [3]; [7]): 82%
refined occupancy, molecule 1, S1 pocket (human furin [3]; [7]): 0.94
refined occupancy, molecule 2, S4 pocket (human furin [3]; [7]): 0.82
refined occupancy, molecule 3, crystal contact site (human furin [3]; [7]): 0.66
apparent dissociation constant at the S4 binding site (human furin [3]; estimated from inhibitor titration of crystals, 0.25 M NaCl): low millimolar range
potency loss / increase of the Ki for PC7 compared with furin (PC7): ~3 fold
Ki (PC7; pH 7.0, 37 °C): 10.4 ± 0.7 µM

Compound: C/C(=N\NC(=N)N)c1ccccc1 [inhibitor 3]
Ki (furin; ref 26): 273 µM

Compound: N=C(N)N/N=C/c1ccccc1OCc1ccc(Cl)cc1 [inhibitor 4]
Ki (furin; ref 24): 11.8 µM
Ki (furin; ref 26): 25.3 µM

Km (human furin [2]; [8]): 4.7 ± 0.4 µM
Km (PC5/6; [8]): 2.5 ± 0.2 µM
Km (PC7; absence of inhibitor, 1:2 dilution series of the substrate, pH 7.0, 37 °C): 19.3 ± 0.8 µM
Compound: pyr-ERTKR-7-amino-4-methylcoumarin [reference compound]
